How the values were obtained:
[1] = test system: NA with H275Y mutation, strain A/WSN/1933 (H1N1); details: cited from earlier work
H275Y NA2009 [2] = format: biochemical, A/California/07/2009 (H1N1) influenza virus
[3] = test system: H275Y/S247N 2009 pandemic H1N1 virus; details: cited from earlier work
[4] = test system: H275Y/I223V 2009 pandemic H1N1 virus; details: cited from earlier work
H275Y/S247N NA2009 = format: biochemical, A/California/07/2009 (H1N1) influenza virus
I223V NA2009 [5] = format: biochemical, A/California/07/2009 (H1N1) influenza virus
S247N NA2009 [6] = format: biochemical, A/California/07/2009 (H1N1) influenza virus
H275Y NA2009 [7] = format: binding, A/California/07/2009 (H1N1) influenza virus
I223V NA2009 [8] = format: binding, A/California/07/2009 (H1N1) influenza virus
S247N NA2009 [9] = format: binding, A/California/07/2009 (H1N1) influenza virus
H275Y/I223V NA2009 = format: biochemical, A/California/07/2009 (H1N1) influenza virus

CCC(CC)[C@H](NC(C)=O)[C@@H]1[C@H](O)[C@@H](C(=O)O)C[C@H]1N=C(N)N [peramivir]
reduction in susceptibility conferred by His to Tyr mutation at position 275 [1]: 260 fold

CCC(CC)O[C@@H]1C=C(C(=O)O)C[C@H](N)[C@H]1NC(C)=O [oseltamivir carboxylate]
Ki (H275Y NA2009 [2]): 27 µM
enhanced oseltamivir-resistant phenotype compared to the recombinant wt virus [3]: 7000 fold
enhanced oseltamivir-resistant phenotype compared to the recombinant wt virus [4]: 1733 fold
reduction in susceptibility conferred by His to Tyr mutation at position 275 [1]: 750 fold
Fold Ki (H275Y/S247N NA2009): 9000 fold
Ki (H275Y/S247N NA2009): 220 µM
increase in Ki compared to the H275Y single mutant (H275Y/S247N NA2009): 8 fold
increase in Ki compared to the S247N single mutant (H275Y/S247N NA2009): 500 fold
Ki (I223V NA2009 [5]): 0.7 ± 0.1 µM
Fold Ki (S247N NA2009 [6]): 19 fold
Ki (S247N NA2009 [6]): 0.45 ± 0.04 µM
enthalpy change less favorable than the wt value (H275Y NA2009 [7]): 8.7 kcal/mol
more favorable entropic contribution (referenced to the wt value) (H275Y NA2009 [7]): 6 kcal/mol
Kd (H275Y NA2009 [7]; pH 6.15): 13.2 µM
ΔG (H275Y NA2009 [7]; pH 6.15): -6.7 ± 0.03 kcal/mol
ΔH (H275Y NA2009 [7]; pH 6.15): -2.1 ± 0.04 kcal/mol
−T·ΔS (H275Y NA2009 [7]; pH 6.15): -4.6 ± 0.1 kcal/mol
less favorable enthalpy change compared to wt (I223V NA2009 [8]): 1.4 kcal/mol
more favorable entropic contribution compared to wt (I223V NA2009 [8]): 0.6 kcal/mol
Kd (I223V NA2009 [8]; pH 6.15): 0.52 ± 0.03 µM
ΔG (I223V NA2009 [8]; pH 6.15): -8.6 ± 0.1 kcal/mol
ΔH (I223V NA2009 [8]; pH 6.15): -9.4 ± 0.1 kcal/mol
−T·ΔS (I223V NA2009 [8]; pH 6.15): 0.9 ± 0.2 kcal/mol
entropic contribution of binding compared to wt (S247N NA2009 [9]): almost unaffected
less favorable enthalpy change compared to wt (S247N NA2009 [9]): 0.4 kcal/mol
Kd (S247N NA2009 [9]; pH 6.15): 0.41 ± 0.02 µM
ΔG (S247N NA2009 [9]; pH 6.15): -8.7 ± 0.03 kcal/mol
ΔH (S247N NA2009 [9]; pH 6.15): -10.4 ± 0.1 kcal/mol
−T·ΔS (S247N NA2009 [9]; pH 6.15): 1.7 ± 0.1 kcal/mol
Fold Ki (H275Y/I223V NA2009): 3900 fold
Ki (H275Y/I223V NA2009): 94 µM
increase in Ki compared to H275Y NA2009 (H275Y/I223V NA2009): more than three-fold
